Source: patent publication US20240091310A1, “COMPOSITIONS AND METHODS USEFUL FOR THE PREVENTION AND/OR TREATMENT OF DISEASE IN MAMMALS” (VIRO-GEN (PTY) LTD, priority 2020, published 2024)

Tests used:
HIV-1 [1] = experiment: Follow-up HIV PCR and CD4 count after transdermal DMF study; assay type: in vivo, human
From the text: Individuals, the study of whom generated the teachings of ZA 1998/064649, despite being infected with HIV have maintained a CD4^+ T-cell count above 350 for more than 20 years without being on antiretroviral treatment. These individuals are referred to herein as Long-term Non-Progressors (“LTNP”).
One such individual, had initially presented with HIV PCR detecting 63.298 HIV-1 RNA copies/ml of plasma in December 1996.

[2] = Transdermal absorption of liquid DMF; assay type: in vivo, human; settings: two patches of diameter 9 cm, total skin surface area 127 cm^2
Description: For transdermal administration of a polar compound, the rate of absorption is determined by the skin of the subject.
Accordingly, the desired rate of absorption may be achieved by controlling the surface area of the skin exposed to the drug, as by determining the area of each patch and the number of patches applied to the skin.

HIV-1 [3] = settings: transdermal patch containing DMF; cited from earlier work
HIV = settings: as previously disclosed; cited from earlier work

Row | SMILES | HIV-1 RNA copies/ml of plasma by HIV PCR (HIV-1 [1]; one LTNP individual, follow-up March 2006 after transdermal DMF study, initially 63.298 copies/ml in December 1996) [copies/ml] | CD4 Count (HIV-1 [1]; same individual, follow-up 2011) [µL⁻¹] | HIV-1 RNA copies/ml of plasma by HIV PCR (HIV-1 [1]; same individual, further follow-up 2011) | absorption rate [2] | outcome of treatment of patients infected with HIV-1 (HIV-1 [3]) | inhibition of HIV production (HIV)
1 | CN(C)C=O [DMF, N,N-dimethylformamide] | < 40 | 920 | No | about 1.2 g of DMF per hour | promising results | powerful inhibitors of HIV production
2 | C[S+](C)[O-] [DMSO, Diemthylsulfoxide] | – | – | – | – | – | powerful inhibitors of HIV production
